According to ChEMBL document CHEMBL3885881, “DrugMatrix”:

Species: Rattus norvegicus
Experiment: DrugMatrix - Regimen: Daily Repeat
Format: toxicity, organism-based, Sprague-Dawley
Parameters: regimen Daily Repeat, gender Male, age 6-8 weeks
Conditions: in vivo, po, 1500 mg/kg, route oral GAVAGE, dose level High, vehicle .5 % CMC; for ABSOLUTE BASOPHIL / ABSOLUTE EOSINOPHIL / ABSOLUTE LYMPHOCYTE / ABSOLUTE MONOCYTE / ABSOLUTE SEGMENTED NEUTROPHIL / BASOPHIL / EOSINOPHIL / ERYTHROCYTE COUNT / HEMATOCRIT / HEMOGLOBIN / LEUKOCYTE COUNT / LYMPHOCYTE / MEAN CORPUSCULAR HEMOGLOBIN / MEAN CORPUSCULAR HEMOGLOBIN CONCENTRATION / MEAN CORPUSCULAR VOLUME / MONOCYTE / NEUTROPHIL / NUCLEATED RED BLOOD CELLS / PLATELET COUNT: tissue Blood
[1] = 72 h, tissue Plasma, time 3 day
[2] = 120 h, tissue Plasma, time 5 day

CC(C)=CCC/C(C)=C/CO [GERANIOL]
ABSOLUTE BASOPHIL (72 h, time 3 day): 0 CELLS/uL
ABSOLUTE EOSINOPHIL (72 h, time 3 day): 0 CELLS/uL
ABSOLUTE LYMPHOCYTE (72 h, time 3 day): 15609.33 CELLS/uL
ABSOLUTE MONOCYTE (72 h, time 3 day): 78.67 CELLS/uL
ABSOLUTE SEGMENTED NEUTROPHIL (72 h, time 3 day): 1378.67 CELLS/uL
BASOPHIL (72 h, time 3 day): 0%
EOSINOPHIL (72 h, time 3 day): 0%
ERYTHROCYTE COUNT (72 h, time 3 day): 5.7 x10E6/uL
HEMATOCRIT (72 h, time 3 day): 37.23%
HEMOGLOBIN (72 h, time 3 day): 14.37 G/DL
LEUKOCYTE COUNT (72 h, time 3 day): 17.07 x10E3/uL
LYMPHOCYTE (72 h, time 3 day): 92%
MEAN CORPUSCULAR HEMOGLOBIN (72 h, time 3 day): 25.2 pg
MEAN CORPUSCULAR HEMOGLOBIN CONCENTRATION (72 h, time 3 day): 38.57 G/DL
MEAN CORPUSCULAR VOLUME (72 h, time 3 day): 65.37 fL
MONOCYTE (72 h, time 3 day): 0.33%
NEUTROPHIL (72 h, time 3 day): 7.67%
NUCLEATED RED BLOOD CELLS (72 h, time 3 day): 0.33 /100WBC
PLATELET COUNT (72 h, time 3 day): 1276 x10E3/uL
ALANINE AMINOTRANSFERASE [1]: 47.33 u/L
ALBUMIN [1]: 4.4 G/DL
ALKALINE PHOSPHATASE [1]: 442 u/L
ASPARTATE AMINOTRANSFERASE [1]: 82 u/L
BLOOD UREA NITROGEN [1]: 13 mg/dL
CARBON DIOXIDE [1]: 29 mmol/L
CHLORIDE [1]: 100.67 MEQ/L
CHOLESTEROL [1]: 46.33 mg/dL
CREATINE PHOSPHOKINASE [1]: 471.33 u/L
CREATININE [1]: 0.25 mg/dL
GLUCOSE [1]: 162 mg/dL
LACTATE DEHYDROGENASE [1]: 193.67 u/L
LIPASE [1]: 9 u/L
PHOSPHORUS [1]: 14.7 mg/dL
POTASSIUM [1]: 7.11 MEQ/L
SODIUM [1]: 143.87 MEQ/L
TOTAL BILIRUBIN [1]: 0.13 mg/dL
TOTAL PROTEIN [1]: 5.93 G/DL
URIC ACID [1]: 2.07 mg/dL
ABSOLUTE BASOPHIL (120 h, time 5 day): 0 CELLS/uL
ABSOLUTE EOSINOPHIL (120 h, time 5 day): 0 CELLS/uL
ABSOLUTE LYMPHOCYTE (120 h, time 5 day): 19247.33 CELLS/uL
ABSOLUTE MONOCYTE (120 h, time 5 day): 1179 CELLS/uL
ABSOLUTE SEGMENTED NEUTROPHIL (120 h, time 5 day): 2373.67 CELLS/uL
BASOPHIL (120 h, time 5 day): 0%
EOSINOPHIL (120 h, time 5 day): 0%
ERYTHROCYTE COUNT (120 h, time 5 day): 6.01 x10E6/uL
HEMATOCRIT (120 h, time 5 day): 36.67%
HEMOGLOBIN (120 h, time 5 day): 14.67 G/DL
LEUKOCYTE COUNT (120 h, time 5 day): 22.8 x10E3/uL
LYMPHOCYTE (120 h, time 5 day): 84.67%
MEAN CORPUSCULAR HEMOGLOBIN (120 h, time 5 day): 24.53 pg
MEAN CORPUSCULAR HEMOGLOBIN CONCENTRATION (120 h, time 5 day): 40.03 G/DL
MEAN CORPUSCULAR VOLUME (120 h, time 5 day): 61.2 fL
MONOCYTE (120 h, time 5 day): 5%
NEUTROPHIL (120 h, time 5 day): 10.33%
NUCLEATED RED BLOOD CELLS (120 h, time 5 day): 0 /100WBC
PLATELET COUNT (120 h, time 5 day): 1333 x10E3/uL
ALANINE AMINOTRANSFERASE [2]: 63 u/L
ALBUMIN [2]: 4.63 G/DL
ALKALINE PHOSPHATASE [2]: 302.67 u/L
ASPARTATE AMINOTRANSFERASE [2]: 95.67 u/L
BLOOD UREA NITROGEN [2]: 18 mg/dL
CARBON DIOXIDE [2]: 32 mmol/L
CHLORIDE [2]: 102.33 MEQ/L
CHOLESTEROL [2]: 85.67 mg/dL
CREATINE PHOSPHOKINASE [2]: 441 u/L
CREATININE [2]: 0.16 mg/dL
GLUCOSE [2]: 143 mg/dL
LACTATE DEHYDROGENASE [2]: 772 u/L
LIPASE [2]: 10 u/L
PHOSPHORUS [2]: 12.2 mg/dL
POTASSIUM [2]: 6.32 MEQ/L
SODIUM [2]: 142.2 MEQ/L
TOTAL BILIRUBIN [2]: 0.1 mg/dL
URIC ACID [2]: 2 mg/dL
